Measurements reported in patent publication US20080102130A1, “DRY GRANULATED PHARMACEUTICAL COMPOSITIONS AND METHODS FOR PRODUCING SAME” (Janssen Pharmaceutica NV, priority 2006, published 2008).

Test: Particle size distribution of the drug substance
Assay type: physicochemical
Source text: Tapentadol is predominantly rectangular or rod-shaped crystalline powder. […] The D10 can be as low as 5 microns while the D99 can be as high as 500 microns. Although, the particle size distribution of the drug substance is controlled during crystallization, milling or micronizing the API to less than a micron size would not affect processability, as described herein, or the attribute of the drug product. Other APIs with similar properties such as Tramadol are expected to have a similar behavior.

## CC[C@@H](c1cccc(O)c1)[C@@H](C)CN(C)C [Tapentadol]
  Particle size distribution D10: ≥ 5 microns
  Particle size distribution D99: ≤ 500 microns
